# Data reported in patent publication US20250388604A1, “Compounds and Their Use as PDE4 Activators” (Mironid Limited, priority 2022, published 2025).
# Tested on: m-IMCD3 cells
# Assay: Inhibition of PGE2-stimulated in vitro cyst formation in m-IMCD3 cells
# Type: cell-based, mouse
# Settings: Mus musculus, mIMCD3, 144 h, 10 μM; mean cyst area, 100% for (DMSO + PGE2) and 0% for DMSO control; 6 days of culture; read-out: % Cyst area after incubation with 10 μM test compound
# Procedure: HEK 293 and MDCK cells (Public Health England, Cell Culture Collections) were maintained in Dulbecco's Modified Eagle's Medium (DMEM) supplemented with 10% (v/v) fetal bovine serum (FBS) (Seralab), 2 mM L-glutamine and 100 U/mL penicillin streptomycin cocktail (ThermoFisher); termed complete media. Clonal HEK 293 cell lines were maintained in complete media supplemented with 0.6 mg/ml G418 (Enzo Life Sciences). Mouse inner medullary collecting duct (m-IMCD3) cells [American Type Culture Collection (ATCC)] were maintained in media consisting of DMEM/Hams F-12 50/50 Mix (DMEM F12; Corning) supplemented with penicillin streptomycin cocktail (100 U/mL) and FBS (10% v/v) (DMEM F12-10% FBS).
# The mouse Inner Medullary Collecting Duct cell line (m-IMCD3) spontaneously forms cystic spheroids in 3D culture with a Type 1 collagen/Matrigel extracellular matrix. This process can be stimulated with agents which raise intracellular cAMP and is used as an in vitro model for the formation of cystic structures in the kidneys of patients with ADPKD.
# Rat Collagen I (Fisher Scientific) is prepared on ice by neutralising with 1M NaOH and diluting with a 2× volume of DMEM/F12+10% FBS. This is mixed 1:1.1 with ice cold Matrigel (Corning) for coating plates (coating mix), and 1:0.93 with Matrigel for cell plating (plating mix).
# The assay is conducted in the wells of a 96-well plate culture dish using a total volume of 130 μL of collagen/Matrigel/DMEM F12-10% FBS suspension in growth media for each matrix plug per individual well. Initially, 30 μL of collagen/Matrigel/DMEM F12-10% FBS (coating mix) is added into the well of a 96 well plate and the collagen is set to a gel by incubating at 37° C. for at least 15 minutes. A second layer of 100 μL collagen/Matrigel suspension (plating mix) containing m-IMCD3 cells (2.75×10^6 m-IMCD3 cells per 96-well plate) is layered over the coating mix and the collagen/Matrigel/cell mix again set to a gel by incubating at 37° C. Cell cultures are maintained at 37° C. in an atmosphere of 5% CO2, 95% air.
# Between 18 and 24 h after plating, test compound(s) as DMSO stock solutions [0.1% (v/v) final DMSO concentration] and PGE2 (100 nM final concentration) in DMEM F12-10% FBS are added in quadruplicate wells per condition. Media, together with the test compound and PGE2 are replenished after 2 or 3 days. After 6 days of culture z stack images of the wells are captured using the Nikon Eclipse Ti2-E microscope. Nikon General Analysis software is used to measure the following parameters in each well: the mean cyst area, the number of cysts, and the total cyst area.
# PDE4 long form activators inhibited in vitro cyst formation in m-IMCD3 cells. Data are shown in Table 4 as mean cyst area (%), compared to 100% for (DMSO+PGE2) and 0% for DMSO control.
row,SMILES,activity at 10 µM [%]
1,"CC1(C)CCCC1C(=O)N1CCc2nc(N3C4CCC3CNC4)sc2C1 (stereo not drawn) [Example 37, (2-(3,8-diazabicyclo[3.2.1]octan-8-yl)-6,7-dihydrothiazolo[5,4-c]pyridin-5(4H)-yl)(2,2-dimethylcyclopentyl)methanone]",-2
2,"CC1(C)CCC(C(=O)N2CCc3nc(N4C5CCC4CNC5)sc3C2)C1 (stereo not drawn) [Example 38, (2-(3,8-diazabicyclo[3.2.1]octan-8-yl)-6,7-dihydrothiazolo[5,4-c]pyridin-5(4H)-yl)(3,3-dimethylcyclopentyl)methanone]",8
3,"CC(C)NC(=O)N1CCc2nc(N3C4CCC3CNC4)sc2C1 [Example 51, 2-(3,8-diazabicyclo[3.2.1]octan-8-yl)-N-isopropyl-6,7-dihydrothiazolo[5,4-c]pyridine-5(4H)-carboxamide]",9
4,O=C(NC1CCCCC1)N1CCc2nc(N3C4CCC3CNC4)sc2C1 [Example 52],-6
5,"O=C(NCc1ccc(F)cc1)N1CCc2nc(N3C4CCC3CNC4)sc2C1 [Example 55, 2-(3,8-diazabicyclo[3.2.1]octan-8-yl)-N-(4-fluorobenzyl)-6,7-dihydrothiazolo[5,4-c]pyridine-5(4H)-carboxamide]",0
6,"O=C(NCc1ccc(C(F)(F)F)cc1)N1CCc2nc(N3C4CCC3CNC4)sc2C1 [Example 56, 2-(3,8-diazabicyclo[3.2.1]octan-8-yl)-N-(4-(trifluoromethyl)benzyl)-6,7-dihydrothiazolo[5,4-c]pyridine-5(4H)-carboxamide]",-6
7,"O=C(Nc1ccccc1)N1CCc2nc(N3C4CCC3CNC4)sc2C1 [Example 57, 2-(3,8-diazabicyclo[3.2.1]octan-8-yl)-N-phenyl-6,7-dihydrothiazolo[5,4-c]pyridine-5(4H)-carboxamide]",-3
8,"O=C(NC1CCC(F)(F)CC1)N1CCc2nc(N3C4CCC3CNC4)sc2C1 [Example 58, 2-(3,8-diazabicyclo[3.2.1]octan-8-yl)-N-(4,4-difluorocyclohexyl)-6,7-dihydrothiazolo[5,4-c]pyridine-5(4H)-carboxamide]",-3
9,"O=C(N1CCCC1)N1CCc2nc(N3C4CCC3CNC4)sc2C1 [Example 60, (2-(3,8-diazabicyclo[3.2.1]octan-8-yl)-6,7-dihydrothiazolo[5,4-c]pyridin-5(4H)-yl)(pyrrolidin-1-yl)methanone]",2
10,"CN(C(=O)N1CCc2nc(N3C4CCC3CNC4)sc2C1)C1CCCC1 [Example 62, 2-(3,8-diazabicyclo[3.2.1]octan-8-yl)-N-cyclopentyl-N-methyl-6,7-dihydrothiazolo[5,4-c]pyridine-5(4H)-carboxamide]",1
11,"CC(C)(C)C(=O)N1CCc2nc(N3C4CCC3CNC4)sc2C1 [Example 65, 1-(2-(3,8-diazabicyclo[3.2.1]octan-8-yl)-6,7-dihydrothiazolo[5,4-c]pyridin-5(4H)-yl)-2,2-dimethylpropan-1-one]",-2
12,"O=C(CC1CCC(F)(F)CC1)N1Cc2nc(N3C4CCC3CNC4)sc2C1 [Example 67, 1-(2-(3,8-diazabicyclo[3.2.1]octan-8-yl)-4,6-dihydro-5H-pyrrolo[3,4-d]thiazol-5-yl)-2-(4,4-difluorocyclohexyl)ethan-1-one]",-4
13,"O=C(NC1CCC(F)(F)CC1)N1CCn2nc(N3C4CCC3CNC4)cc2C1 [Example 70, 2-(3,8-diazabicyclo[3.2.1]octan-8-yl)-N-(4,4-difluorocyclohexyl)-6,7-dihydropyrazolo[1,5-a]pyrazine-5(4H)-carboxamide]",7
14,"O=C(CC1CCC(F)(F)CC1)N1CCn2nc(N3C4CCC3CNC4)cc2C1 [Example 71, 1-(2-(3,8-diazabicyclo[3.2.1]octan-8-yl)-6,7-dihydropyrazolo[1,5-a]pyrazin-5(4H)-yl)-2-(4,4-difluorocyclohexyl)ethan-1-one]",-3
15,"O=C(COc1ccc(F)cc1)N1CCn2nc(N3C4CCC3CNC4)cc2C1 [Example 72, 1-(2-(3,8-diazabicyclo[3.2.1]octan-8-yl)-6,7-dihydropyrazolo[1,5-a]pyrazin-5(4H)-yl)-2-(4-fluorophenoxy)ethan-1-one]",-3
16,"O=C(COc1ccnc(F)c1)N1CCc2nc(N3C4CCC3CNC4)sc2C1 [Example 73, 1-(2-(3,8-diazabicyclo[3.2.1]octan-8-yl)-6,7-dihydrothiazolo[5,4-c]pyridin-5(4H)-yl)-2-((2-fluoropyridin-4-yl)oxy)ethan-1-one]",3
17,"CN1CC2CCC(C1)N2c1nc2c(s1)CN(C(=O)CC1CCCC1)CC2 [Example 75, 2-cyclopentyl-1-(2-(3-methyl-3,8-diazabicyclo[3.2.1]octan-8-yl)-6,7-dihydrothiazolo[5,4-c]pyridin-5(4H)-yl)ethan-1-one]",-4
18,"CN1CC2CCC(C1)N2c1nc2c(s1)CN(C(=O)NC1CCC(F)(F)CC1)CC2 [Example 77, N-(4,4-difluorocyclohexyl)-2-(3-methyl-3,8-diazabicyclo[3.2.1]octan-8-yl)-6,7-dihydrothiazolo[5,4-c]pyridine-5(4H)-carboxamide]",1
19,"CN1CC2CCC(C1)N2c1nc2c(s1)CN(C(=O)COc1ccnc(F)c1)CC2 [Example 79, 2-((2-fluoropyridin-4-yl)oxy)-1-(2-(3-methyl-3,8-diazabicyclo[3.2.1]octan-8-yl)-6,7-dihydrothiazolo[5,4-c]pyridin-5(4H)-yl)ethan-1-one]",-2
20,"CN1CC2CCC(C1)N2c1nc2c(s1)CN(C(=O)NC1CCCC1)C2 [Example 82, N-cyclopentyl-2-(3-methyl-3,8-diazabicyclo[3.2.1]octan-8-yl)-4,6-dihydro-5H-pyrrolo[3,4-d]thiazole-5-carboxamide]",2
21,"CN1CC2CCC(C1)N2c1nc2c(s1)CN(C(=O)CC1CCCC1)C2 [Example 83, 2-cyclopentyl-1-(2-(3-methyl-3,8-diazabicyclo[3.2.1]octan-8-yl)-4,6-dihydro-5H-pyrrolo[3,4-d]thiazol-5-yl)ethan-1-one]",4
22,"CN1CC2CCC(C1)N2c1nc2c(s1)CN(C(=O)CC1CCC(F)(F)CC1)C2 [Example 84, 2-(4,4-difluorocyclohexyl)-1-(2-(3-methyl-3,8-diazabicyclo[3.2.1]octan-8-yl)-4,6-dihydro-5H-pyrrolo[3,4-d]thiazol-5-yl)ethan-1-one]",1
23,"CN1CC2CCC(C1)N2c1cc2n(n1)CCN(C(=O)NC1CCC(F)(F)CC1)C2 [Example 85, N-(4,4-difluorocyclohexyl)-2-(3-methyl-3,8-diazabicyclo[3.2.1]octan-8-yl)-6,7-dihydropyrazolo[1,5-a]pyrazine-5(4H)-carboxamide]",-2
24,"CN1CC2CCC(C1)N2c1cc2n(n1)CCN(C(=O)CC1CCC(F)(F)CC1)C2 [Example 86, 2-(4,4-difluorocyclohexyl)-1-(2-(3-methyl-3,8-diazabicyclo[3.2.1]octan-8-yl)-6,7-dihydropyrazolo[1,5-a]pyrazin-5(4H)-yl)ethan-1-one]",-1
25,"O=C(CC1CCC(F)(F)CC1)N1CCn2nc(N3C4CCC3CNC4)nc2C1 [Example 97, 1-(2-(3,8-diazabicyclo[3.2.1]octan-8-yl)-5,6-dihydro-[1,2,4]triazolo[1,5-a]pyrazin-7 (8H)-yl)-2-(4,4-difluorocyclohexyl)ethan-1-one]",6
26,"CC1(C)CN(C(=O)CC2CCC(F)(F)CC2)Cc2sc(N3C4CCC3CNC4)nc21 [Example 98, 1-(2-(3,8-diazabicyclo[3.2.1]octan-8-yl)-7,7-dimethyl-6,7-dihydrothiazolo[5,4-c]pyridin-5(4H)-yl)-2-(4,4-difluorocyclohexyl)ethan-1-one]",3
27,"CC1(C)CN(C(=O)CC2CCC(F)(F)CC2)Cc2sc(N3CCNCC3)nc21 [Example 100, 2-(4,4-difluorocyclohexyl)-1-(7,7-dimethyl-2-(piperazin-1-yl)-6,7-dihydrothiazolo[5,4-c]pyridin-5(4H)-yl)ethan-1-one]",-1
